Source: PMC10974505, “Evaluation of the Antifungal and Antiproliferative Properties of the Lichen Roccella tinctoria DC. Extracts and Main Components” (Pharmaceutics, 2024)
≈ marks a conversion by molar mass, not a printed value.

Key:
A549 lung cancer cells = assay: MTT cytotoxicity assay, A549 lung cancer cells; type: cell-based, human; conditions: for cytotoxicity at the highest concentration tested: A549 cells, 500 µg/mL
From the text: (§1) A549 cells were kindly provided by Prof. Lucia Nencioni (Dept. of Public Health and Infectious Diseases, Sapienza University of Rome, Rome, Italy), while Mz-ChA-1 and H69 cells were donated by Prof. Romina […]. of Anatomical, Histological, Forensic and Orthopedic Sciences, Sapienza University of Rome, Rome, Italy) and Prof. […] (Indiana University School of Medicine, Indianapolis, IN, USA). BEAS-2B cells were provided by Sigma-Aldrich (St. Louis, MO, USA). […] The growth media were replaced twice per week; subcultures were prepared when the cells achieved approximately 80% confluency. […] In brief, 2 × 10^4 cells/well were cultured into 96-well microplates for 24 h. Then, they were subjected to a treatment with progressive concentrations of the tested extracts for further 24 h. […] The effect of the treatments on the cell viability was expressed as percentage of the vehicle control. […] In addition, tolerability studies in human epithelial BEAS-2B bronchial cells and H69 cholangiocytes were performed in order to establish the possible selective cytotoxicity of the tested samples to cancer cells.

BEAS-2B bronchial cells = assay: MTT tolerability assay, noncancerous BEAS-2B bronchial cells; type: cell-based, human; conditions: for IC50: Homo sapiens, BEAS-2B, read-out: IC50 [µg/mL] (CL) BEAS-2B; for inhibition of BEAS-2B cell viability: 50 µg/mL
From the text: as §1

[1] = tested on: Mz-ChA-1 cholangiocarcinoma cells; assay: MTT cytotoxicity assay, Mz-ChA-1 cholangiocarcinoma cells; type: cell-based, human; conditions: for cytotoxicity at the highest concentration tested: Mz-ChA-1 cells, 500 µg/mL
From the text: as §1

H69 cholangiocytes = assay: MTT tolerability assay, noncancerous H69 cholangiocytes; type: cell-based, human; conditions: MTT, 24 h treatment, confidence limits in brackets, ne 1 = not evaluable, highest inhibitory effect lower than 80%, ne 2 = not evaluable, lower inhibitory effect higher than 40%; for IC50: Homo sapiens, read-out: IC50 [µg/mL] (CL) H69
From the text: as §1

[2] = tested on: HCT-116 colon cancer cells; parameters: method as in PMID 35190352; conditions: cited from earlier work
[3] = MTT tolerability assay, noncancerous H69 cholangiocytes; type: cell-based, human; conditions: human, SV40-immortalized H69 cholangiocytes (noncancerous); 50 µg/mL; read-out: lowering of H69 cell viability
From the text: as §1

[4] = tested on: C. albicans planktonic cells; assay: Antifungal susceptibility test (broth microdilution), planktonic cells; type: cell-based, Candida albicans ATCC 10231; conditions: for MIC50 / MIC90 / MIC: Candida albicans; for MIC50: read-out: GM MIC50; for MIC90: minimum inhibitory concentration of 90% fungal growth, read-out: GM MIC90; for MIC: minimum inhibitory concentration of 100% fungal growth, read-out: GM MIC100
Experimental: Candida albicans ATCC 10231 was obtained from the American Type Culture Collection (ATCC, Rockville, MD, USA). The antifungal effects of the isolated compounds and of the extracts against C. albicans ATCC 10231 were measured using the broth microdilution method following the standardized methods for yeast. C. albicans was cultured on Sabouraud dextrose agar (Sigma Aldrich, St. Louis, MO, USA) at 35 °C for 24 h. The final concentration of the inoculum was 2500 cells/mL. The extracts and the compounds were firstly dissolved in DMSO and then diluted at least 100-times with RPMI-1640 medium buffered with MOPS (4-morpholinepropanesulfonic acid). […] The minimal inhibitory concentration (MIC) was calculated by comparison of the growth in each well with that of the drug-free control after 24 h. Each experiment was conducted in triplicate and replicated at least three times on different dates.
The antifungal activity of extracts and isolated compounds against C. albicans planktonic cells was examined following the standardized broth microdilution method for yeasts (CLSI M27-A3).

C. albicans biofilm [5] = assay: Anti-Candida biofilm formation, 48 h (CV assay); type: cell-based; conditions: 512 μg/mL
Experimental: Candida biofilm was established on flat-bottomed, 48-well microtiter plates, following previous protocols with minor modifications. […] Plates were then incubated for 48 h at 37 °C. After biofilm formation, the medium was aspirated, and non-adherent cells were removed by washing twice with phosphate-buffered saline (PBS). C. albicans biomass was quantified using CV assay.
(§2) Candida adhesion is followed by the colonization and formation of the biofilm, which is a community of cells with the ability to secrete the extracellular matrix (ECM). Biofilm-characterized infections are the most difficult to treat, and preventing biofilm formation could be of major importance. An anti-Candida biofilm formation assay was conducted after 24 h and 48 h of biofilm incubation, and the total biomass was evaluated using the CV assay.

C. albicans ATCC 10231 = assay: Galleria mellonella survival assay (larvae infected with C. albicans); type: in vivo
Experimental: The survival assay was carried out as described by Cairone and colleagues. G. mellonella larvae weighed 0.3 ± 0.03 g and were obtained from Todaro Sport (Rome, Italy). […] Three control groups were used, one with no treatment applied, one pierced and inoculated with sterile saline solution, and one treated with C. albicans suspension. The larvae were subsequently placed in an incubator set at 37 °C and observed for 120 h. […] Each trial was replicated three times, and the outcomes were documented as the survival percentage.
G. mellonella larvae as an in vivo model were chosen due to the similarities between their immunity system and the mammalian one. Furthermore, G. mellonella larvae provide a well-established in vivo model known for its ease of handling and utilization. They are extensively employed to assess the antimicrobial efficacy of both chemical and natural compounds, aligning with the ethical guidelines of the 3Rs (Replacement, Reduction, and Refinement) in animal research.

Alternaria solani = tested on: Alternaria solani; parameters: method as in doi:10.4038/jnsfsr.v40i1.4167; conditions: 100 µg/mL; cited from earlier work
Fusarium oxysporum = tested on: Fusarium oxysporum; parameters: method as in doi:10.4038/jnsfsr.v40i1.4167; conditions: 100 µg/mL; cited from earlier work
C. albicans biofilm [6] = assay: Anti-Candida biofilm formation, 24 h (CV assay); type: cell-based, Candida albicans; conditions: concentration not given
Experimental: Presterilized, polystyrene, flat-bottom 48-well microtiter plates were used to investigate anti-Candida adhesion property of the extracts and the compounds [47, 48]. […] After that time, the cell suspensions were aspirated, and each well was washed twice with PBS to remove loosely adherent cells. Thus, CV assay was used to quantitatively study Candida adhesion (90 min) and early biofilm formation (24 h). The biomass was measured at 590 nm using a microplate reader.
as §2

[7] = tested on: MCF-7 (breast cancer cell line); parameters: method as in doi:10.32508/stdjns.v2i5.779; conditions: MCF-7, 100 µg/mL; isolated from Roccella sinensis; cited from earlier work
[8] = tested on: HeLa (cervical cancer cell line); parameters: method as in doi:10.32508/stdjns.v2i5.779; conditions: 100 µg/mL, isolated from Roccella sinensis; cited from earlier work
[9] = tested on: HepG2 (liver hepatocellular carcinoma cell line); parameters: method as in doi:10.32508/stdjns.v2i5.779; conditions: HepG2, 100 µg/mL; isolated from Roccella sinensis; cited from earlier work
[10] = tested on: NCI-H460 (human lung cancer cell line); parameters: method as in doi:10.32508/stdjns.v2i5.779; conditions: NCI-H460, 100 µg/mL; isolated from Roccella sinensis; cited from earlier work
[11] = tested on: different fungal strains including C. albicans; parameters: method as in PMID 30732479; conditions: cited from earlier work
[12] = MTT, 24 h treatment, confidence limits in brackets, ne 1 = not evaluable, highest inhibitory effect lower than 80%, ne 2 = not evaluable, lower inhibitory effect higher than 40%
[13] = geometric mean, minimum inhibitory concentration of 50% fungal growth, 24 h

Cc1cc(O)cc(O)c1C(=O)OCC(O)C(O)CO (centres unmarked) [Compound 3, montagnetol] showed a melting point of 158 to 160 °C.
For COc1cccc2c1C(=O)c1c(O)c3c(c(O)c1C2=O)C[C@@](O)(C(=O)CO)C[C@@H]3O[C@H]1C[C@H](N)[C@H](O)[C@H](C)O1 [Doxorubicin, doxorubicin, reference compound], the IC50 (A549 lung cancer cells; Homo sapiens, A549, MTT, 24 h treatment, confidence limits in brackets, ne 1 = not evaluable, highest inhibitory effect lower than 80%, ne 2 = not evaluable, lower inhibitory effect higher than 40%, read-out: IC50 [µg/mL] (CL) A549) was 17.3 µg/mL (≈ 31.8 µM), the IC50 (BEAS-2B bronchial cells; [12]) was 4.1 µg/mL (≈ 7.54 µM) and the IC50 ([1]; Homo sapiens, MTT, 24 h treatment, confidence limits in brackets, ne 1 = not evaluable, highest inhibitory effect lower than 80%, ne 2 = not evaluable, lower inhibitory effect higher than 40%, read-out: IC50 [µg/mL] (CL) Mz-ChA-1) was 24.5 µg/mL (≈ 45.1 µM). It also gave an IC50 (H69 cholangiocytes) of 15.7 µg/mL (≈ 28.9 µM).
For Cc1cc(OC(=O)c2c(C)cc(O)cc2O)cc(O)c1C(=O)O [lecanoric acid], the “effect on HCT-116 cells” value [2] is listed as “affected the cell viability and colony formation, and it induced a cell cycle block”.
For COC(=O)c1c(C)cc(O)cc1O [Compound 2, methyl orsellinate], the “cytotoxicity at the highest concentration tested” value (A549 lung cancer cells) was “lower than 50%”, the “IC50 [µg/mL] (CL) A549” value (A549 lung cancer cells; [12]) was “ne ^1” and the “inhibition of BEAS-2B cell viability” value (BEAS-2B bronchial cells) was “at least 40%”. The IC50 (BEAS-2B bronchial cells; [12]) was 103 µg/mL (≈ 564 µM), the “IC50 [µg/mL] (CL) Mz-ChA-1” value [1, 12] was “ne ^1” and the “cytotoxicity at the highest concentration tested” value [1] was “lower than 50%”. For the same compound, the cytotoxicity at 24 h, 50 µg/mL [3] was 60%, the “IC50 [µg/mL] (CL) H69” value (H69 cholangiocytes) was “ne ^2” and the MIC50 [4, 13] was 87 µg/mL (≈ 478 µM). For the same compound, the MIC90 ([4]; geometric mean, 24 h) was greater than 128 µg/mL, the MIC ([4]; geometric mean, 24 h) was greater than 128 µg/mL and the “GM MIC50” value [4, 13] was 87 µg/mL. For the same compound, the inhibition at 512 µg/mL (C. albicans biofilm [5]) was 72%, the larvae survival rate (C. albicans ATCC 10231; 512 μg/mL (10 μL), after 5 days, infected control survival 10%) was 50% and the inhibition percentage (Alternaria solani) was 58.41%. For the same compound, the inhibition percentage (Fusarium oxysporum) was 67.39%.
With Cc1cc(OC(=O)c2c(C)cc(O)cc2O)cc(O)c1C(=O)OCC(O)C(O)CO (centres unmarked) [Compound 1, erythrin] the “cytotoxicity at the highest concentration tested” value (A549 lung cancer cells) was “at least 60%”, the “IC50 [µg/mL] (CL) A549” value (A549 lung cancer cells; [12]) was “ne ^1” and the “inhibition of BEAS-2B cell viability” value (BEAS-2B bronchial cells) was “at least 40%”. The “IC50 [µg/mL] (CL) BEAS-2B” value (BEAS-2B bronchial cells; [12]) was “ne ^2”, the “IC50 [µg/mL] (CL) Mz-ChA-1” value [1, 12] was “ne ^1” and the “cytotoxicity at the highest concentration tested” value [1] was “at least 60%”. The cytotoxicity at 24 h, 50 µg/mL [3] was roughly 40%, the IC50 (H69 cholangiocytes) was 138 µg/mL (≈ 327 µM) and the MIC50 [4, 13] was greater than 128 µg/mL. For the same compound, the MIC90 ([4]; geometric mean, 24 h) was greater than 128 µg/mL, the MIC ([4]; geometric mean, 24 h) was greater than 128 µg/mL and the “activity against the planktonic growth of C. albicans” value ([4]; at the highest concentration (512 μg/mL)) was “no activity”. The “percent rate of inhibition of biofilm formation” value (C. albicans biofilm [6]) was “lower than 40%”, the “infected larvae mortality rate” value (C. albicans ATCC 10231; 256 μg/mL (10 μL), control group mortality 90%) was 20% and the “toxicity” value [7] was “nontoxic”. The “toxicity” value [8] was “nontoxic”, the “toxicity” value [9] was “nontoxic” and the “toxicity” value [10] was “nontoxic”. The “antifungal activity” value [11] was “not shown any antifungal activity”.
